In patent publication US20040058309A1, “Plasma supplement and use in liver assist systems” (priority 2003, published 2004):
“Also recorded” adds a separate entry of the source. Read-outs that look alike come from different tables or passages of the source.

What was measured:
Rat hepatocytes [1] = test: Urea synthesis rate of rat hepatocytes (collagen sandwich) exposed to supplemented citrated human plasma; format: cell-based
Procedure: (§1) Type I collagen was prepared from Lewis rat tail tendons as previously described in Dunn et al. (supra). […] Six-well culture plates were coated with 0.5 ml of collagen gelling solution and the coated plates were incubated at 37° C. for 1 hour to allow for gelation. The hepatocytes were suspended in culture medium and seeded at a density of 1.0×10^6 cell per well. The standard hepatocyte culture medium consisted of DMEM supplemented with 10% FBS, 0.5 U/ml insulin, 14 ng/ml glucagon, 20 ng/ml EGF, 7.5 μg/ml hydrocortisone, 200 U/ml penicillin, and 200 μg/ml streptomycin. After incubating at 37° C. in a humidified gas mixture of 90% air/10% CO2 for 24 hours, the culture medium was removed and the cells were overlaid with a second 0.5 ml layer of collagen gelling solution to form the collagen sandwich. After gelling for 45 minutes at 37° C., 1 ml of fresh medium was added. Fresh medium (1 ml) was supplied to the cultures daily after removal of the previous day's medium. The hepatocytes were cultured for 6 days in standard culture medium prior to plasma exposure.
(§2) Expired plasma from a blood bank was pooled, aliquoted, and kept frozen until used for experiments. Plasma supplements were prepared in concentrated form and added individually to plasma as described in the following examples.
(§3) In each set of experiments, components of the supplementation to be included or excluded were designated according to the result from prior experiments. On the 7th day after isolation, the culture medium was removed and hepatocytes were fed with 1 ml of plasma. Cells were fed with fresh plasma daily thereafter. Control cultures were maintained in hepatocyte culture medium throughout. For the hormone study only, the 6-day-old collagen double-gel cultures were washed 10 times with unsupplemented DMEM to remove residual hormones in the collagen gel, and twice with medium or plasma identical to the following experimental condition.
(§4) Culture supernatants were collected daily after a 24 hour culture period. […] A standard curve was derived using background culture medium prepared by incubation with an empty collagen gel for the same period as the cell culture, and chromatographically purified rat albumin (Cappel Laboratories). Urea concentration in standard culture medium and in plasma was measured by the specific reaction of diacetyl monoxime with urea (Blood Urea Nitrogen Assay Kit, Sigma Diagnostics).
(§5) Rates of secretion were normalized to the number of cells initially seeded. […] The statistical significance of observed differences was determined by two-way analysis of variance and post hoc Tukey's test. An alpha value of 5% was considered significant.

Rat hepatocytes [2] = test: Albumin synthesis rate of rat hepatocytes (collagen sandwich) exposed to supplemented citrated human plasma; format: cell-based; settings: for Albumin synthesis (in words) vs plasma with BME amino acid supplementation: 10 mM as only amino acid supplementation of citrated plasma
Procedure: as §1, §2, §3, §4, §5

[3] = citrated human plasma + 5× medium concentrate, day 5 of plasma exposure, vs fully supplemented plasma

## [Cl-].[K+] [potassium chloride]
Rat hepatocytes [1]; [3]
  Effect on urea synthesis of removing (or reducing) the component in the plasma supplementation: no significant effect
Rat hepatocytes [2]; [3]
  Effect on albumin synthesis of removing (or reducing) the component in the plasma supplementation: no significant effect

## [Cl-].[Cl-].[Mg+2] [magnesium chloride]
Rat hepatocytes [1]
  Effect on urea synthesis of removing (or reducing) the component in the plasma supplementation: significantly less
Rat hepatocytes [2]
  Effect on albumin synthesis of removing (or reducing) the component in the plasma supplementation: significantly less

## [Cl-].[Na+] [sodium chloride]
Rat hepatocytes [1]; [3]
  Effect on urea synthesis of removing (or reducing) the component in the plasma supplementation: increased; also recorded: enhanced
Rat hepatocytes [2]; [3]
  Effect on albumin synthesis of removing (or reducing) the component in the plasma supplementation: increased; also recorded: enhanced

## NCC(=O)O [glycine]
Rat hepatocytes [1]; 10 mM as only amino acid supplementation of citrated plasma, day 5 of plasma exposure, vs BME amino acids
  Decrease of urea synthesis rate: 43%
Rat hepatocytes [2]; day 5 of plasma exposure
  Albumin synthesis (in words) vs plasma with BME amino acid supplementation: significantly less albumin

## C[C@]12CCC(=O)C=C1CC[C@@H]1[C@@H]2[C@@H](O)C[C@@]2(C)[C@H]1CC[C@]2(O)C(=O)CO [hydrocortisone, reference compound]
Rat hepatocytes [2]; [3]
  Effect on albumin synthesis of removing (or reducing) the component in the plasma supplementation: significantly reduced

## [Ca+2].[Cl-].[Cl-] [calcium chloride]
Rat hepatocytes [1]
  Effect on urea synthesis of removing (or reducing) the component in the plasma supplementation: significantly less
Rat hepatocytes [2]
  Effect on albumin synthesis of removing (or reducing) the component in the plasma supplementation: significantly less

## glucagon [reference compound]
Rat hepatocytes [1]; [3]
  Effect on urea synthesis of removing (or reducing) the component in the plasma supplementation: decreased significantly
Rat hepatocytes [2]; [3]
  Effect on albumin synthesis of removing (or reducing) the component in the plasma supplementation: significantly reduced

## insulin [reference compound]
Rat hepatocytes [2]; [3]
  Effect on albumin synthesis of removing (or reducing) the component in the plasma supplementation: significantly reduced

## NC(=O)CC[C@H](N)C(=O)O [glutamine]
Rat hepatocytes [1]; 10 mM as only amino acid supplementation of citrated plasma, day 5 of plasma exposure
  Urea synthesis rate (in words): maintained
Rat hepatocytes [2]; day 5 of plasma exposure
  Albumin synthesis (in words) vs plasma with BME amino acid supplementation: significantly less albumin
